Source: patent US10150760B2, “Compounds for use in preparing heterocyclic triazole agonists of the APJ receptor” (AMGEN INC., priority 2016, dated 2018)

Biological target: human APJ receptor (Homo sapiens (Human), UniProt P35414)
Assay: [35S]GTPγS binding assay on membranes from CHO cells stably expressing human APJ receptor
Assay type: biochemical
Conditions: read-out: Activity hAPJ SPA EC50 IP
Method: The human APJ receptor was cloned by polymerase chain reaction and the gene encoding the receptor was subcloned in pFLAG-CMV™-3 expression vector (Sigma, Saint Louis, Mo. USA) in-house at Amgen. A GTPγS binding assay was performed on membranes prepared from CHO cells stably expressing human APJ receptor. The optimum experimental conditions for the concentrations of GDP, MgCl2, and NaCl in the assay buffer were initially determined. The assay was performed in assay buffer [20 mM HEPES, pH 7.5, 5 mM MgCl2, and 0.1% (w/v) BSA with 200 mM NaCl, 3 μM GDP] and membranes expressing human APJ receptor/well along with WGA PS beads. The reaction was initiated by addition of 0.2 nM [^35S]GTPγS (Perkin Elmer Life and Analytical Sciences, Waltham USA) in the absence or presence of various ligands and incubated at RT for 90 min. Nonspecific binding was determined in the presence of 100 μM GTPγS and was always less than 0.2% of total binding. All the results presented are means of several independent experiments and analyzed by non-linear regression methods using commercially available program Prism (GraphPad, San Diego, Calif.) to obtain EC50 detailed in Table 38.

human APJ receptor, sequence (P35414 whole entry): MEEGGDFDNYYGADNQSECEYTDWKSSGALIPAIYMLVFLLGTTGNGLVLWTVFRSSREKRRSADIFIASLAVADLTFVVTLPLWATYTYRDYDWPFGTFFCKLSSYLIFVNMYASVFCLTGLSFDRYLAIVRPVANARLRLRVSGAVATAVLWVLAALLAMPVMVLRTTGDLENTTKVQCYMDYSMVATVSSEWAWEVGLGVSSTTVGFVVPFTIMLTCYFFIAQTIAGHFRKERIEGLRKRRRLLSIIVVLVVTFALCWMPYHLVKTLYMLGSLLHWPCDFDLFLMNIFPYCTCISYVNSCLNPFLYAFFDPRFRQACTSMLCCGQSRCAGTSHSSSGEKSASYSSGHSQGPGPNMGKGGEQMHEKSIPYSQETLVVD

Compound | EC50 [nM]
COc1cccc(OC)c1-n1c(NS(=O)(=O)[C@@H](C)[C@H](OC)c2ncc(C)cn2)nnc1[C@@H]1CCNC1 (mixture of isomers) [Example 45.0, (1R,2S)-N-(4-(2,6-Dimethoxyphenyl)-5-((R)-pyrrolidin-3-yl)-4H-1,2,4-triazol-3-yl)-1-methoxy-1-(5-methylpyrimidin-2-yl)propane-2-sulfonamide and (1R,2S)-N-(4-(2,6-dimethoxyphenyl)-5-((S)-pyrrolidin-3-yl)-4H-1,2,4-triazol-3-yl)-1-methoxy-1-(5-methylpyrimidin-2-yl)propane-2-sulfonamide] | 510
COc1cccc(OC)c1-n1c(NS(=O)(=O)[C@@H](C)[C@H](C)c2ncc(C)cn2)nnc1[C@H]1CCCO1 (mixture of isomers) [Example 48.0, (2S,3R)-N-(4-(2,6-dimethoxyphenyl)-5-((R)-tetrahydrofuran-2-yl)-4H-1,2,4-triazol-3-yl)-3-(5-methylpyrimidin-2-yl)butane-2-sulfonamide and (2S,3R)-N-(4-(2,6-dimethoxyphenyl)-5-((S)-tetrahydrofuran-2-yl)-4H-1,2,4-triazol-3-yl)-3-(5-methylpyrimidin-2-yl)butane-2-sulfonamide] | 3.9
COc1cccc(OC)c1-n1c(NS(=O)(=O)[C@@H](C)[C@H](C)c2ncc(Cl)cn2)nnc1[C@H]1CCO1 (mixture of isomers) [Example 142.0, (2S,3R)-3-(5-chloropyrimidin-2-yl)-N-(4-(2,6-dimethoxyphenyl)-5-((R)-oxetan-2-yl)-4H-1,2,4-triazol-3-yl)butane-2-sulfonamide and (2S,3R)-3-(5-chloropyrimidin-2-yl)-N-(4-(2,6-dimethoxyphenyl)-5-((S)-oxetan-2-yl)-4H-1,2,4-triazol-3-yl)butane-2-sulfonamide] | 1.9
COc1cccc(OC)c1-n1c(NS(=O)(=O)CCc2ccc(F)cc2C#N)nnc1[C@@H]1CCCO1 (mixture of isomers) [Example 146.0, (S)-2-(2-Cyano-4-fluorophenyl)-N-(4-(2,6-dimethoxyphenyl)-5-(tetrahydrofuran-2-yl)-4H-1,2,4-triazol-3-yl)ethanesulfonamide and (R)-2-(2-cyano-4-fluorophenyl)-N-(4-(2,6-dimethoxyphenyl)-5-(tetrahydrofuran-2-yl)-4H-1,2,4-triazol-3-yl)ethanesulfonamide] | 450
COc1cnc([C@@H](C)[C@H](C)S(=O)(=O)Nc2nnc([C@@H]3CC[C@H](C)O3)n2-c2c(OC)cccc2OC)nc1 (mixture of isomers) [Example 249.0, (2S,3R)-N-(4-(2,6-dimethoxyphenyl)-5-((2R,5R)-5-methyltetrahydro-2-furanyl)-4H-1,2,4-triazol-3-yl)-3-(5-methoxy-2-pyrimidinyl)-2-butanesulfonamide and (2S,3R)-N-(4-(2,6-dimethoxyphenyl)-5-((2S,5S)-5-methyltetrahydro-2-furanyl)-4H-1,2,4-triazol-3-yl)-3-(5-methoxy-2-pyrimidinyl)-2-butanesulfonamide] | 540
COCC1(n2c(NS(=O)(=O)[C@@H](C)[C@H](OC)c3ncc(Cl)cn3)nnc2[C@H]2CCOC2)CC1 (mixture of isomers) [Example 303.0, (1R,2S)-1-(5-chloro-2-pyrimidinyl)-1-methoxy-N-(4-(1-(methoxymethyl)cyclopropyl)-5-((3R)-tetrahydro-3-furanyl)-4H-1,2,4-triazol-3-yl)-2-propanesulfonamide and (1R,2S)-1-(5-chloro-2-pyrimidinyl)-1-methoxy-N-(4-(1-(methoxymethyl)cyclopropyl)-5-((3S)-tetrahydro-3-furanyl)-4H-1,2,4-triazol-3-yl)-2-propanesulfonamide] | 340
COCC1(n2c(NS(=O)(=O)[C@@H](C)[C@H](OC)c3ncc(Cl)cn3)nnc2[C@H]2COCCO2)CC1 (mixture of isomers) [Example 304.0, (1R,2S)-N-(5-((S)-1,4-dioxan-2-yl)-4-(1-(methoxymethyl)cyclopropyl)-4H-1,2,4-triazol-3-yl)-1-(5-chloropyrimidin-2-yl)-1-methoxypropane-2-sulfonamide and (1R,2S)-N-(5-((R)-1,4-dioxan-2-yl)-4-(1-(methoxymethyl)cyclopropyl)-4H-1,2,4-triazol-3-yl)-1-(5-chloropyrimidin-2-yl)-1-methoxypropane-2-sulfonamide] | 210
COc1cccc(OC)c1-n1c(NS(=O)(=O)CCc2ncc(Cl)cn2)nnc1[C@@H]1COCCO1 (mixture of isomers) [Example 387.0, 2-(5-chloro-2-pyrimidinyl)-N-(4-(2,6-dimethoxyphenyl)-5-((2R)-1,4-dioxan-2-yl)-4H-1,2,4-triazol-3-yl)ethanesulfonamide and 2-(5-chloro-2-pyrimidinyl)-N-(4-(2,6-dimethoxyphenyl)-5-((2S)-1,4-dioxan-2-yl)-4H-1,2,4-triazol-3-yl)ethanesulfonamide] | 48
COc1cccc(OC)c1-n1c(NS(=O)(=O)CCc2ccc(Cl)cc2)nnc1[C@@H]1CCCO1 (racemic) [Example 143.0, (S)-2-(4-Chlorophenyl)-N-(4-(2,6-dimethoxyphenyl)-5-(tetrahydrofuran-2-yl)-4H-1,2,4-triazol-3-yl)ethanesulfonamide and (R)-2-(4-chlorophenyl)-N-(4-(2,6-dimethoxyphenyl)-5-(tetrahydrofuran-2-yl)-4H-1,2,4-triazol-3-yl)ethanesulfonamide] | 120
CO[C@H]1CCC[C@@H](OC)[C@@H]1n1c(NS(=O)(=O)[C@@H](C)[C@H](C)c2ncc(C)cn2)nnc1[C@@H]1CCCO1 (single isomer, unassigned) [Example 3.0, (2S,3R)-N-(4-((1r,2R,6S)-2,6-Dimethoxycyclohexyl)-5-((2S)-tetrahydro-2-furanyl)-4H-1,2,4-triazol-3-yl)-3-(5-methyl-2-pyrimidinyl)-2-butanesulfonamide or (2S,3R)-N-(4-((1r,2R,6S)-2,6-dimethoxycyclohexyl)-5-((2R)-tetrahydro-2-furanyl)-4H-1,2,4-triazol-3-yl)-3-(5-methyl-2-pyrimidinyl)-2-butanesulfonamide] | 1200
COc1cccc(OC)c1-n1c(NS(=O)(=O)CCc2ccc(Cl)cc2)nnc1[C@H]1CCOC1 (single isomer, unassigned) [Example 9.0, (R)-2-(4-Chlorophenyl)-N-(4-(2,6-dimethoxyphenyl)-5-(tetrahydrofuran-3-yl)-4H-1,2,4-triazol-3-yl)ethanesulfonamide or (S)-2-(4-chlorophenyl)-N-(4-(2,6-dimethoxyphenyl)-5-(tetrahydrofuran-3-yl)-4H-1,2,4-triazol-3-yl)ethanesulfonamide] | 210
COc1cccc(OC)c1-n1c(NS(=O)(=O)[C@@H](C)[C@H](C)c2ncc(C#N)cn2)nnc1[C@@H]1CCCO1 (single isomer, unassigned) [Example 24.0, (2S,3R)-3-(5-Cyano-2-pyrimidinyl)-N-(4-(2,6-dimethoxyphenyl)-5-((2S)-tetrahydro-2-furanyl)-4H-1,2,4-triazol-3-yl)-2-butanesulfonamide or (2S,3R)-3-(5-cyano-2-pyrimidinyl)-N-(4-(2,6-dimethoxyphenyl)-5-((2R)-tetrahydro-2-furanyl)-4H-1,2,4-triazol-3-yl)-2-butanesulfonamide] | 4.5
